From publication PMC6476888, “Design and synthesis of anticancer 1-hydroxynaphthalene-2-carboxanilides with a p53 independent mechanism of action” (Scientific Reports, 2019)

Tests used:
HCT116^−/− = test: Antiproliferative assay (MTS, 72 h) on HCT116 with p53 deletion; format: cell-based, human; conditions: for IC50: Homo sapiens, HCT-116, MTS, 72 h incubation
Method: (§1) All of the synthesized compounds were tested for their antiproliferative activity against human colon cancer (Table 1). We used both the wild-type and p53-negative cell lines (HCT116^+/+ and HCT116^−/−, respectively). Mutations in the TP53 gene are present in more than 50% of all cancers and often specifically correspond to a difficult therapy, resistance or a bad prognosis[60]–[63]. The active compounds were additionally tested for their cytotoxicity against normal human fibroblasts. We used 5-fluorouracil (5-FLU), doxorubicin (DOX) and CP-31398 as the standards. 5-FLU is one of the first antimetabolites that was dedicated for cancer treatment and is still used for a wide range of cancers including colon carcinoma. Doxorubicin is a DNA topoisomerase II poison with a high intercalating potency, which is able to induce apoptosis through the p53 pathway. Although DOX has been described as being ineffective in some p53 mutants, its level of activity against the p53 null lines is similar. CP-31398, on the other hand, is an experimental drug in the clinical phase and its mechanism of action is through the reactivation some of p53 mutants. Its activity against the p53 null cell lines is greatly diminished and is actually lower than its cytotoxicity.
(§2) The human colon cancer cell line HCT116 wild type was obtained from ATCC and the normal human fibroblast cell lines NHDF were obtained from PromoCell. The human colon cancer cell line HCT116 with a p53 deletion (p53^−/−) was kindly provided by Prof. M. Rusin from the Maria Sklodowska-Curie Memorial Cancer Centre and Institute of Oncology in Gliwice, Poland[89]. The cells were grown as monolayer cultures in Dulbecco’s modified Eagle’s medium with the antibiotic gentamicin (200 μL/100 mL medium) in 75 cm^2 flasks (Nunc). The DMEM for the HCT116 were supplemented with 12% heat-inactivated fetal bovine serum (Sigma-Aldrich, St. Louis, MO, USA) and for NHDF with 15% non-inactivated fetal bovine serum (Sigma Aldrich, St. Louis, MO, USA). The cells were cultured under standard conditions at 37 °C in a humidified atmosphere at 5% CO2.
(§3) The cells were seeded in 96-well plates (Nunc) at a density of 5,000 cells/well (HCT116) and 4,000 cells/well (NHDF) and incubated at 37 °C for 24 h. The assay was performed following a 72 h incubation with varying concentrations of the compounds that were being tested. Then, 20 µL of CellTiter 96® AQueous One Solution-MTS (Promega) was added to each well (with 100 µL DMEM without phenol red) and incubated for 1 h at 37 °C. The optical densities of the samples were analyzed at 490 nm using a Synergy 4 multi-plate reader (BioTek, Winooski, VT, USA). The results are expressed as the percentage of the control and were calculated as the inhibitory concentration (IC50) values (using a GraphPad Prism 7). The IC50 parameter was defined as the compound concentration that was necessary to reduce the proliferation of cells to 50% of the untreated control. Each individual compound was tested in triplicate in a single experiment with each experiment being repeated three or four times.

HCT116^+/+ = test: Antiproliferative assay (MTS, 72 h) on HCT116 wild type; format: cell-based, human; conditions: Homo sapiens, HCT-116; MTS, 72 h incubation; read-out: Activity IC50 HCT116^+/+
Method: as §1, §2, §3

NHDF = test: Cytotoxicity (MTS, 72 h) against normal human fibroblasts; format: cell-based; conditions: Homo sapiens, NHDF; MTS, 72 h incubation
Method: as §1, §2, §3

Row | Compound | IC50 (HCT116^−/−) | melting point | IC50 (HCT116^+/+) | selectivity towards the p53 null cells (HCT116 p53^−/− vs wild type) (HCT116^−/−) | IC50 (NHDF)
1 | Cc1cc(C)c(NC(=O)c2ccc3ccccc3c2O)c(C)c1 [3g] | > 25 µM | 160 to 163 °C | > 25 µM |  | 
2 | O=C(Nc1ccc(Br)c(F)c1)c1ccc2ccccc2c1O [4v] | 12.4 ± 1.11 µM | 199 to 202 °C | 10.9 ± 2.69 µM | not selective | > 25 µM
3 | COc1cc([N+](=O)[O-])ccc1NC(=O)c1ccc2ccccc2c1O [2g] | 3.73 ± 1.09 µM | 250 to 253 °C | 2.62 ± 0.85 µM |  | 7.53 ± 2.97 µM
4 | Cc1ccc(C(F)(F)F)cc1NC(=O)c1ccc2ccccc2c1O [3i] | 5.08 ± 1.23 µM | 140 to 143 °C | 8.41 ± 1.07 µM |  | > 25 µM
5 | O=C(Nc1c(F)cccc1F)c1ccc2ccccc2c1O [4f] | > 25 µM | 197 to 200 °C | > 25 µM |  | 
6 | O=C(Nc1ccc(Cl)cc1F)c1ccc2ccccc2c1O [4q] | 9.69 ± 3.13 µM | 163 to 165 °C | 9.89 ± 3.26 µM |  | > 25 µM
7 | O=C(Nc1cc(F)ccc1Br)c1ccc2ccccc2c1O [6j] | 5.83 ± 1.06 µM | 187 to 190 °C | 7.78 ± 1.37 µM |  | > 25 µM
8 | O=C(Nc1ccc(F)c(C(F)(F)F)c1)c1ccc2ccccc2c1O [7m] | 14.5 ± 4.53 µM | 164 to 166 °C | 12 ± 3.68 µM |  | > 25 µM
9 | O=C(Nc1cc(C(F)(F)F)ccc1F)c1ccc2ccccc2c1O [4u] | 7.45 ± 1.74 µM | 190 to 192 °C | 10.1 ± 2.61 µM |  | > 25 µM
10 | O=C(Nc1ccc(F)cc1C(F)(F)F)c1ccc2ccccc2c1O [7g] | > 25 µM | 135 to 137 °C | > 25 µM |  | 
11 | O=C(Nc1cc(F)cc(F)c1)c1ccc2ccccc2c1O [4h] | 2.24 ± 0.3 µM | 199 to 200 °C | 1.79 ± 0.44 µM |  | 9.87 ± 0.66 µM
12 | O=C(Nc1ccc(C(F)(F)F)cc1Br)c1ccc2ccccc2c1O [6i] | 2.19 ± 0.67 µM | 168 to 170 °C | 3.58 ± 1.25 µM |  | 18.4 ± 1.23 µM
13 | O=C(Nc1c(F)c(F)c(F)c(F)c1F)c1ccc2ccccc2c1O [4n] | 17.5 ± 0.76 µM | 230 to 234 °C | 11.6 ± 0.74 µM |  | > 25 µM
14 | O=C(Nc1cccc(Cl)c1F)c1ccc2ccccc2c1O [4o] | 6.76 ± 2.37 µM | 172 to 174 °C | 8.78 ± 2.18 µM |  | > 25 µM
15 | O=C(Nc1c(F)cc(F)cc1F)c1ccc2ccccc2c1O [4k] | > 25 µM | 180 to 184 °C | > 25 µM |  | 
16 | O=C(Nc1ccc(F)c(F)c1)c1ccc2ccccc2c1O [4g] | 5.88 ± 0.5 µM | 153 to 156 °C | 3.04 ± 0.06 µM |  | 
17 | COc1ccc(C)cc1NC(=O)c1ccc2ccccc2c1O [2j] | > 25 µM | 106 to 108 °C | > 25 µM |  | 
18 | COc1cccc(C)c1NC(=O)c1ccc2ccccc2c1O [2k] | > 25 µM | 177 to 179 °C | > 25 µM |  | 
19 | Cc1ccc(NC(=O)c2ccc3ccccc3c2O)cc1C(F)(F)F [7l] | > 25 µM | 168 to 171 °C | > 25 µM |  | 
20 | COc1ccc(NC(=O)c2ccc3ccccc3c2O)cc1C(F)(F)F [7k] | > 25 µM | 183 to 186 °C | > 25 µM |  | 
21 | O=C(Nc1c(Cl)cc(C(F)(F)F)cc1Cl)c1ccc2ccccc2c1O [5v] | > 25 µM | 191 to 194 °C | > 25 µM |  | 
22 | COc1ccc(OC)c(NC(=O)c2ccc3ccccc3c2O)c1 [2d, N-(2,5-dimethoxyphenyl)−1-hydroxynaphthalene-2-carboxamide] | > 25 µM | 116 to 119 °C | > 25 µM |  | 
23 | O=C(Nc1c(Br)cc(F)c(Cl)c1Br)c1ccc2ccccc2c1O [6m] | > 25 µM | 244 to 247 °C | > 25 µM |  | 
